From patent US20240228476A1, “INHIBITORS OF PROTEIN TYROSINE PHOSPHATASE, COMPOSITIONS, AND METHODS OF USE” (BRISTOL-MYERS SQUIBB COMPANY, priority 2022, published 2024)

Assays:
B16-F10 cells = experiment: Cell proliferation assay (CellTiter-Glo) in B16-F10 cells with IFN-gamma; assay type: cell-based; conditions: 120 h, mouse IFN-gamma 10 ng/mL, read-out: PTPN2 Prolif 5d B16F10 EC50
Description: B16-F10 cells (ATCC, Manassas, VA, #CRL-6475) were cultured in DMEM growth medium (ThermoFisher Scientific, Waltham, MA, #11995-040) supplemented with 10% heat inactivated FBS (ThermoFisher Scientific, #16140-071) and 1% pen/strep (ThermoFisher Scientific, #15140-122). The cells were seeded into two white opaque 384-well tissue culture treated microplates (PerkinElmer, Waltham, MA, #6007688) at a density of 100 cells/well in 20 uL total volume and incubated overnight at 37 C and 5% CO2. 30 nL of compounds dissolved in DMSO were then transferred from a source plate into target wells with the Echo650 acoustic liquid handler (Beckman Coulter, Indianapolis, IN). Negative control wells received 30 nL of DMSO only (0.15% final concentration). Plates were returned to the incubator for 1 hour and then cells treated with either 5 uL of growth medium or 5 uL of growth medium containing 50 ng/ml of recombinant mouse IFN-gamma protein (R&D Systems, Minneapolis, MN, #485-MI/CF, 10 ng/mL final concentration) using the Assist automated pipetting platform (INTEGRA Biosciences, Hudson, NH). Plates were incubated at 37 C for 4 days and cell proliferation assayed with the CellTiter-Glo reagent (Promega, Madison, WI, #G7573, 25 uL per well). […] Off-target compound mediated cytotoxicity was identified by checking for growth inhibition in the absence of IFNg.

PTPN2 [1] = biological target: T1, PTPN2 (Homo sapiens, UniProt P17706); experiment: PTPN2 biochemical assay (PhosphoSens, substrate AQT0264); conditions: PhosphoSens substrate AQT0264 20 μM, room temperature; read-out: PTPN2 BCHEM IC50
T1 sequence (P17706 1-415): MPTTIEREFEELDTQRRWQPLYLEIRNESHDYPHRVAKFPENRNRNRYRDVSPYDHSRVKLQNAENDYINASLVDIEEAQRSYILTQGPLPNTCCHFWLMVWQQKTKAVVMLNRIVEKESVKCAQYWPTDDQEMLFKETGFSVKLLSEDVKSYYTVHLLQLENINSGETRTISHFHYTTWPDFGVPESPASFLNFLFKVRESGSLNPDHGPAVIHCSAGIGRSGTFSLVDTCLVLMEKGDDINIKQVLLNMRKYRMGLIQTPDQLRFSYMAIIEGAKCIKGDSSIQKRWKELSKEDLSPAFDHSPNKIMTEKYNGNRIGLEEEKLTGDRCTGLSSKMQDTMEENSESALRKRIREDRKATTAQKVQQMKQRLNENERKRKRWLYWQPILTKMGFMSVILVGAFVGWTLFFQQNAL
Description: A PhosphoSens® kinase assay was performed as described by the vendor (AssayQuant Technologies, Marlborough, MA). Briefly, 1000× solutions of compounds were prepared in DMSO via serial dilution of the 10 mM DMSO stocks using 3-fold intervals in a 384-well reagent plate. 50 nL of the compound dilution series was then added to the corresponding wells of a 384-well assay plate. 40 mL of 1.25× substrate (AQT0264) in 1× assay buffer (50 mM HEPES pH 7.5, 500 μM EGTA, […] MgCl2, 0.01% Brij-35, 1% Glycerol, 1 mM DTT, and 0.2 mg/mL BSA) was transferred to each well of the assay plate to achieve a final substrate concentration of 20 μM. Finally, […] of 5×PTPN2 enzyme stock was added to each well of the assay plate for a final enzyme concentration of […]. Reaction progress curves were collected by sampling fluorescence intensity at the excitation wavelength 360 nm (λex360) and emission wavelength 480 nm (λem480) every 71 seconds for one hour using a Synergy H4 plate reader (BioTek Instruments/Agilent Technologies, Winooski, VT) at room temperature.
(§1) For IC50 data, High DDT concentration and/or DiFMUP substrate assays were used; a skilled artisan may use either assay.

phospho-STAT1 (Tyr701) = experiment: Phospho-STAT1 (Tyr701) HTRF assay in B16-F10 cells; assay type: cell-based; conditions: mouse IFN-gamma 100 ng/ml, 1 hour, read-out: pSTAT1 HTRF B16 EC50
Description: B16-F10 cells (ATCC, Manassas, VA, #CRL-6475) were cultured in DMEM growth medium (ThermoFisher Scientific, Waltham, MA, #11995-040) supplemented with 10% heat inactivated FBS (ThermoFisher Scientific, #16140-071) and 1% pen/strep (ThermoFisher Scientific, #15140-122). The cells were seeded into a white opaque 384-well tissue culture treated microplate (PerkinElmer, Waltham, MA, #6007688) at a density of 10,000 cells/well in 20 uL total volume and incubated overnight at 37 C and 5% CO2. 30 nL of compounds dissolved in DMSO were then transferred from a source plate into target wells with the Echo650 acoustic liquid handler (Beckman Coulter, Indianapolis, IN). Negative control wells received 30 nL of DMSO only (0.15% final concentration). Plates were returned to the incubator for 1 hour and then cells treated with either 5 uL of growth medium or 5 uL of growth medium containing 500 ng/ml of recombinant mouse IFN-gamma protein (R&D Systems, Minneapolis, MN, #485-MI/CF, 100 ng/ml final concentration) using the Assist automated pipetting platform (INTEGRA Biosciences, Hudson, NH). Plates were incubated at 37 C for 1 hour and assayed for phosphorylated STAT1 protein levels with the phospho-STAT1 (Tyr701) HTRF kit (Cisbio, Bedford, MA, #63ADK026PEH) according to manufacturer's instructions. HTRF signal intensity was collected with the En Vision 2105 plate reader (PerkinElmer) 24 hours later and analyzed with the Dotmatics software platform to calculate compound IC50 values.

PTPN2 [2] = biological target: T1, PTPN2; experiment: Phosphatase activity assay using DiFMUP as substrate; assay type: biochemical; design: purchased MilliporeSigma SRP5075; conditions: 10 mM DTT, PTPN2 0.15 nM, room temperature, read-out: PTPN2 BCHEM DIFMUP IC50
Description: The PTPN2 biochemical assay was performed as follows, a 5× stock solution of human PTPN2 (SRP5075, MilliporeSigma, Burlington, MA) and a 1.25× stock solution of DiFMUP (D6567, ThermoFisher Scientific, Waltham, MA), were prepared in 1× reaction buffer consisting of 50 mM HEPES, pH 7.4, 1 mM EDTA, 150 mM NaCl, 0.2 mg/mL BSA, 100 U/mL catalase and 10 mM DTT. […] of the DiFMUP substrate solution, for a final concentration of […] DiFMUP substrate, was added to a Corning 3574 384-well, white, non-binding surface microtiter plate containing […] of serially diluted test compounds prepared in DMSO. The reactions were started with the addition of […] of the enzyme solution, for a final PTPN2 concentration of 0.15 nM, and monitored every 105 seconds for 60 minutes at λEX 360/λEM 460 in a BioTek Synergy HTX plate reader (Agilent Technologies, Santa Clara, CA) at room temperature. The initial linear portions of the progress curves were fit according to a linear equation to yield the slopes and converted to % inhibition based on a value of 100% activity for the no inhibitor treated control. IC50 values of each compound were obtained by fitting the % inhibition-compound concentration curves using Dotmatics software (Dotmatics, Bishops Stortford, Hertfordshire, England)
as §1

| EC50 (B16-F10 cells) | IC50 (PTPN2 [1]) | EC50 (phospho-STAT1 (Tyr701)) | IC50 (PTPN2 [2]) | SMILES |
| --- | --- | --- | --- | --- |
| 1290 nM | 30 nM | 490 nM | 210 nM | N#Cc1cnc(NCc2cc(O)c(N3CC(=O)NS3(=O)=O)c(F)c2)nc1 [EXAMPLE 9, 2-[[3-fluoro-5-hydroxy-4-(1,1,4-trioxo-1,2,5-thiadiazolidin-2-yl)phenyl]methylamino]pyrimidine-5-carbonitrile] |
| 410 nM | 10 nM | 650 nM | 100 nM | O=C1CN(c2c(O)cc(CNc3ccc(C4CC4)nc3)cc2F)S(=O)(=O)N1 [EXAMPLE 10, 5-[4-[[(6-cyclopropyl-3-pyridyl)amino]methyl]-2-fluoro-6-hydroxy-phenyl]-1,1-dioxo-1,2,5-thiadiazolidin-3-one] |
| > 15000 nM | 20 nM | > 15000 nM | 100 nM | O=C1CN(c2c(O)cc(CNc3cncc(-c4ccccc4)c3)cc2F)S(=O)(=O)N1 [EXAMPLE 12, 5-[2-fluoro-6-hydroxy-4-[[(5-phenyl-3-pyridyl)amino]methyl]phenyl]-1,1-dioxo-1,2,5-thiadiazolidin-3-one] |
| 1370 nM | 10 nM | 930 nM | 50 nM | CC(C)c1cncc(NCc2cc(O)c(N3CC(=O)NS3(=O)=O)c(F)c2)c1 [EXAMPLE 13, 5-[2-fluoro-6-hydroxy-4-[[(5-isopropyl-3-pyridyl)amino]methyl]phenyl]-1,1-dioxo-1,2,5-thiadiazolidin-3-one] |
| > 15000 nM | 210 nM | > 15000 nM | 490 nM | CCN(Cc1cc(O)c(N2CC(=O)NS2(=O)=O)c(F)c1)c1nc(C)cc(-c2ccccc2C#N)n1 [EXAMPLE 14, 2-[2-[ethyl-[[3-fluoro-5-hydroxy-4-(1,1,4-trioxo-1,2,5-thiadiazolidin-2-yl)phenyl]methyl]amino]-6-methyl-pyrimidin-4-yl]benzonitrile] |
| > 15000 nM | 30 nM | > 15000 nM | 30 nM | Cc1c(NCc2cc(O)c(N3CC(=O)NS3(=O)=O)c(F)c2)ccnc1-c1ccc(C(C)(C)C)cc1 [EXAMPLE 15, 5-[4-[[[2-(4-tert-butylphenyl)-3-methyl-4-pyridyl]amino]methyl]-2-fluoro-6-hydroxy-phenyl]-1,1-dioxo-1,2,5-thiadiazolidin-3-one] |
| 1730 nM | 1 nM | 690 nM | 30 nM | Cc1cncc(NCc2cc(O)c(N3CC(=O)NS3(=O)=O)c(F)c2)n1 [EXAMPLE 16, 5-[2-fluoro-6-hydroxy-4-[[(6-methylpyrazin-2-yl)amino]methyl]phenyl]-1,1-dioxo-1,2,5-thiadiazolidin-3-one] |
| 2210 nM | 20 nM | 1880 nM | 50 nM | Cc1cc(NCc2cc(O)c(N3CC(=O)NS3(=O)=O)c(F)c2)nc(C)n1 [EXAMPLE 17, 5-[4-[[(2,6-dimethylpyrimidin-4-yl)amino]methyl]-2-fluoro-6-hydroxy-phenyl]-1,1-dioxo-1,2,5-thiadiazolidin-3-one] |
| > 15000 nM | 50 nM | > 15000 nM | 110 nM | Cc1cnc(C)c(NCc2cc(O)c(N3CC(=O)NS3(=O)=O)c(F)c2)n1 [EXAMPLE 18, 5-[4-[[(3,6-dimethylpyrazin-2-yl)amino]methyl]-2-fluoro-6-hydroxy-phenyl]-1,1-dioxo-1,2,5-thiadiazolidin-3-one] |
| 1240 nM | 10 nM | 370 nM | 50 nM | Cc1ncc(NCc2cc(O)c(N3CC(=O)NS3(=O)=O)c(F)c2)nc1C [EXAMPLE 19, 5-[4-[[(5,6-dimethylpyrazin-2-yl)amino]methyl]-2-fluoro-6-hydroxy-phenyl]-1,1-dioxo-1,2,5-thiadiazolidin-3-one] |
| > 15000 nM | 70 nM | > 15000 nM | 11100 nM | COc1ncc(C)nc1NCc1cc(O)c(N2CC(=O)NS2(=O)=O)c(F)c1 [EXAMPLE 20, 5-[2-fluoro-6-hydroxy-4-[[(3-methoxy-6-methyl-pyrazin-2-yl)amino]methyl]phenyl]-1,1-dioxo-1,2,5-thiadiazolidin-3-one] |
| 10900 nM | 20 nM | 6800 nM | 50 nM | COc1ncc(C)c(NCc2cc(O)c(N3CC(=O)NS3(=O)=O)c(F)c2)n1 [EXAMPLE 22, 5-[2-fluoro-6-hydroxy-4-[[(2-methoxy-5-methyl-pyrimidin-4-yl)amino]methyl]phenyl]-1,1-dioxo-1,2,5-thiadiazolidin-3-one] |
| 1550 nM | 10 nM | 1920 nM | 20 nM | COc1cncc(NCc2cc(O)c(N3CC(=O)NS3(=O)=O)c(F)c2)n1 [EXAMPLE 23, 5-[2-fluoro-6-hydroxy-4-[[(6-methoxypyrazin-2-yl)amino]methyl]phenyl]-1,1-dioxo-1,2,5-thiadiazolidin-3-one] |
| 4280 nM | 30 nM | 790 nM | 30 nM | Cc1nccc(NCc2cc(O)c(N3CC(=O)NS3(=O)=O)c(F)c2)n1 [EXAMPLE 24, 5-[2-fluoro-6-hydroxy-4-[[(2-methylpyrimidin-4-yl)amino]methyl]phenyl]-1,1-dioxo-1,2,5-thiadiazolidin-3-one] |
